Active and inactive are the calls of the source. No cut-off for these calls is given here. Bridge positions count the residues as written; N and C are the ends. Square brackets hold non-standard residues; d marks the D form. Peptide text beside a SMILES is read from it. * marks the point of attachment. X1 = CC(=O)N(C(=O)CCCCCN)[C@@H](C)C(=O)*; S5 = C=CCCC[C@](C)(N)C(=O)O; Sar = CNCC(=O)O
Key:
Mus musculus [1] = experiment: Anticonvulsant activity in CF1 albino mouse assessed as protection against 6Hz partial psychomotor seizure at 1 nmol/5 ul, icv after 0.5 hrs relative to control; format: functional, organism-based
[2] = Half life in rat serum by HPLC analysis; format: ADME, cell-free
Mus musculus [3] = experiment: Neurotoxicity against CF1 albino mouse assessed as motor impairment at 0.1 nmol/5 ul, icv after 0.5 hrs by rotarod test; format: toxicity, organism-based; details: in vivo, icv_or_intrathecal
[4] = n-octanol-water partition coefficient, log D of the compound by shake-flask method; format: physicochemical
[5] = n-octanol-water partition coefficient, log D of the compound by HPLC capacity factor method; format: physicochemical
Galanin receptor type 1 = biological target: T1, Galanin receptor type 1 (Homo sapiens, UniProt P47211); experiment: Displacement of euporium-galanin from human GalR1 after 1.5 hrs by DELFIA assay
T1 sequence (P47211 whole entry): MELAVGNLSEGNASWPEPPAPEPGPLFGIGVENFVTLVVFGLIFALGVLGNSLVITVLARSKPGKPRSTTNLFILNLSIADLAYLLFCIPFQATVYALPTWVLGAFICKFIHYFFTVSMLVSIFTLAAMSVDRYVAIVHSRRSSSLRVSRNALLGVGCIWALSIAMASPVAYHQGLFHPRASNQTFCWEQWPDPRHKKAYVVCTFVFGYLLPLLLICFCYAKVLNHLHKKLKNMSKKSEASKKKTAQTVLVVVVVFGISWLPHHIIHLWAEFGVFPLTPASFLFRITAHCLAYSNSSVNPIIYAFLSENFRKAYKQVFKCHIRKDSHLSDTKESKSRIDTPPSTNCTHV

Galanin receptor type 2 = biological target: T2, Galanin receptor type 2 (Homo sapiens, UniProt O43603); experiment: Displacement of euporium-galanin from human GalR2 after 1.5 hrs by DELFIA assay
T2 sequence (O43603 whole entry): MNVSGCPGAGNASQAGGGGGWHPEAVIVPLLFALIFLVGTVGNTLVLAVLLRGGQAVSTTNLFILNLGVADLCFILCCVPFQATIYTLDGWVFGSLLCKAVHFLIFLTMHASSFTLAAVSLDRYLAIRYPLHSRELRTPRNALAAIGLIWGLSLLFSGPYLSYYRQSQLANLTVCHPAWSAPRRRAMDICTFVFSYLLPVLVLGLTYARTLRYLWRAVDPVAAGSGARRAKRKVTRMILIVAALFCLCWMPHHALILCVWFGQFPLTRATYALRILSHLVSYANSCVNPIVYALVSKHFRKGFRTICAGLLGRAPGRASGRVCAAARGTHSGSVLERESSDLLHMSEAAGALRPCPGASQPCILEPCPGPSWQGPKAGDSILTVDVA

[6] = biological target: T3, Neuropeptide Y receptor type 2 (Homo sapiens, UniProt P49146); experiment: Agonist activity at human NPY2R expressed inj CHOK1 cells assessed as inhibition of forskolin-stimulated cAMP production after 30 mins by luminescence assay; format: functional, cell-based, CHO-K1
T3 sequence (P49146 whole entry): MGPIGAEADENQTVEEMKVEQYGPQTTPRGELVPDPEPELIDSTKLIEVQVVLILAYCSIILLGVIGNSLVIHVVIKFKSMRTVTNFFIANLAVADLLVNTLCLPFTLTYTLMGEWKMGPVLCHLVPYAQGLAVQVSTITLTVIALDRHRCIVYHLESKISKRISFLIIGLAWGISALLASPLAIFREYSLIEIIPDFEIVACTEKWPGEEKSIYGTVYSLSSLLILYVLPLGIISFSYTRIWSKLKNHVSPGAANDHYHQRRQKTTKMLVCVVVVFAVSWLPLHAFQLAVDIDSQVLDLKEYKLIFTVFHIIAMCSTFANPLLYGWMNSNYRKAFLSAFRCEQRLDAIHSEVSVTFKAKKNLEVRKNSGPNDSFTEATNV

| SMILES | half-life [2] [h] | logD [4] | chromatographic logD [5] | Ki (Galanin receptor type 1) [nM] | Ki (Galanin receptor type 2) [nM] | EC50 [6] [nM] | Activity (Mus musculus [1]) | Activity (Mus musculus [3]) |
| --- | --- | --- | --- | --- | --- | --- | --- | --- |
| CC(C)C[C@H](NC(=O)[C@H](CC(C)C)NC(=O)[C@H](Cc1ccc(O)cc1)NC(=O)CNC(=O)[C@H](C)NC(=O)[C@H](CO)NC(=O)[C@H](CC(N)=O)NC(=O)[C@H](CC(C)C)NC(=O)[C@@H](NC(=O)[C@H](Cc1c[nH]c2ccccc12)NC(=O)CN)[C@@H](C)O)C(=O)NCC(=O)N1CCC[C@H]1C(=O)N[C@@H](Cc1cnc[nH]1)C(=O)N[C@@H](C)C(=O)N[C@H](C(N)=O)C(C)C | 0.13 |  |  |  |  |  | inactive | Non-toxic |
| CC[C@H](C)[C@H](NC(=O)[C@H](Cc1ccc(O)cc1)NC(=O)[C@H](Cc1cnc[nH]1)NC(=O)[C@H](CCCNC(=N)N)NC(=O)[C@H](C)N(C(=O)CCCCCN)C(=O)[C@]1(C)CCC/C=C\CCC[C@](C)(NC(=O)[C@H](Cc2ccc(O)cc2)NC(C)=O)C(=O)N[C@@H](CCCCN)C(=O)N[C@@H](CCCCN)C(=O)N[C@@H](CCCCN)C(=O)N1)C(=O)N[C@@H](CC(N)=O)C(=O)N[C@@H](CC(C)C)C(=O)N[C@@H](CC(C)C)C(=O)N[C@H](C(=O)N[C@@H](CCCNC(=N)N)C(=O)N[C@@H](CCC(N)=O)C(=O)N[C@@H](CCCNC(=N)N)C(=O)N[C@@H](Cc1ccc(O)cc1)C(N)=O)[C@@H](C)O |  |  |  |  |  |  | Active |  |
| CC[C@H](C)[C@H](NC(=O)[C@H](Cc1ccc(O)cc1)NC(=O)[C@H](Cc1c[nH]cn1)NC(=O)[C@H](CCCN=C(N)N)NC(=O)[C@H](CC(C)C)NC(=O)[C@H](C)NC(=O)[C@H](CO)NC(=O)[C@H](Cc1ccc(O)cc1)NC(=O)[C@H](Cc1ccc(O)cc1)NC(=O)[C@H](CCCN=C(N)N)NC(=O)[C@H](C)NC(=O)[C@H](CC(C)C)NC(=O)[C@H](CC(=O)O)NC(=O)[C@H](CCC(=O)O)NC(=O)[C@H](C)NC(=O)[C@@H]1CCCN1)C(=O)N[C@@H](CC(N)=O)C(=O)N[C@@H](CC(C)C)C(=O)N[C@H](C(=O)N[C@H](C(=O)N[C@@H](CCCN=C(N)N)C(=O)N[C@@H](CCC(N)=O)C(=O)N[C@@H](CCCN=C(N)N)C(=O)N[C@@H](Cc1ccc(O)cc1)C(=O)O)[C@@H](C)O)[C@@H](C)CC |  |  |  |  |  |  | inactive | Non-toxic |

The next lines start with results.

| half-life [2] [h] | logD [4] | chromatographic logD [5] | Ki (Galanin receptor type 1) [nM] | Ki (Galanin receptor type 2) [nM] | EC50 [6] [nM] | SMILES | Activity (Mus musculus [1]) | Activity (Mus musculus [3]) |
| --- | --- | --- | --- | --- | --- | --- | --- | --- |
| 2.7 | -0.71 |  |  |  |  | CC(=O)N[C@@H](C)C(=O)N[C@@H](CCCNC(=N)N)C(=O)N[C@@H](Cc1cnc[nH]1)C(=O)N[C@@H](Cc1ccc(O)cc1)C(=O)N[C@@]1(C)CCC/C=C/CCC[C@@](C)(C(=O)N[C@@H](CCCNC(=N)N)C(=O)N[C@@H](CCC(N)=O)C(=O)N[C@@H](CCCNC(=N)N)C(=O)N[C@@H](Cc2ccc(O)cc2)C(N)=O)NC(=O)[C@H](CC(C)C)NC(=O)[C@H](CC(C)C)NC(=O)[C@H](CC(N)=O)NC1=O (Ac-ARHY[S5]NLL[S5]RQRY-NH2; staple (E) 5-9) | Active | Toxic |
| 6.4 |  | 0.71 | 37.5 | 119 |  | CNCC(=O)N[C@@H](Cc1c[nH]c2ccccc12)C(=O)N[C@H](C(=O)N[C@@H](CC(C)C)C(=O)N[C@@H](CC(N)=O)C(=O)N[C@@H](CO)C(=O)N[C@@]1(C)CCC/C=C/CCC[C@@](C)(C(=O)NCC(=O)N2CCC[C@H]2C(=O)N[C@@H](CCCCN)C(=O)N[C@@H](CCCCN)C(=O)N[C@@H](CCCCN)C(=O)N[C@@H](CCCCN)C(N)=O)NC(=O)[C@H](CC(C)C)NC(=O)[C@H](Cc2ccc(O)cc2)NC(=O)CNC1=O)[C@@H](C)O (H-[Sar]WTLNS[S5]GYL[S5]GPKKKK-NH2; staple (E) 7-11) | Active | Non-toxic |
| 0.57 | -2.13 |  |  |  |  | CC[C@H](C)[C@H](NC(=O)[C@H](Cc1ccc(O)cc1)NC(=O)[C@H](Cc1cnc[nH]1)NC(=O)[C@H](CCCNC(=N)N)NC(=O)[C@H](C)N(C(C)=O)C(=O)CCCCCN)C(=O)N[C@@H](CC(N)=O)C(=O)N[C@@H](CC(C)C)C(=O)N[C@H](C(=O)N[C@H](C(=O)N[C@@H](CCCNC(=N)N)C(=O)N[C@@H](CCC(N)=O)C(=O)N[C@@H](CCCNC(=N)N)C(=O)N[C@@H](Cc1ccc(O)cc1)C(N)=O)[C@@H](C)O)[C@@H](C)CC (X1-RHYINLITRQRY-NH2) |  |  |
| 1.8 | 0.08 |  |  |  | 403 | CC[C@H](C)[C@H](NC(=O)[C@H](Cc1ccc(O)cc1)NC(=O)[C@H](Cc1cnc[nH]1)NC(=O)[C@H](CCCN=C(N)N)NC(=O)[C@H](C)N(C(=O)CCCCCN)C(=O)[C@]1(C)CCC/C=C\CCC[C@](C)(NC(=O)[C@H](Cc2ccc(O)cc2)NC(C)=O)C(=O)N[C@@H](CCCCN)C(=O)N[C@@H](CCCCN)C(=O)N[C@@H](CCCCN)C(=O)N1)C(=O)N[C@@H](CC(N)=O)C(=O)N[C@@H](CC(C)C)C(=O)N[C@@H](CC(C)C)C(=O)N[C@H](C(=O)N[C@@H](CCCN=C(N)N)C(=O)N[C@@H](CCC(N)=O)C(=O)N[C@@H](CCCN=C(N)N)C(=O)N[C@@H](Cc1ccc(O)cc1)C(N)=O)[C@@H](C)O |  | Non-toxic |
| 15.7 |  | 0.78 | 3.8 | 15.6 |  | CNCC(=O)N[C@@H](Cc1c[nH]c2ccccc12)C(=O)N[C@H](C(=O)N[C@@H](CC(C)C)C(=O)N[C@@H](CC(N)=O)C(=O)N[C@@H](CO)C(=O)N[C@@H](C)C(=O)NCC(=O)N[C@@H](Cc1ccc(O)cc1)C(=O)N[C@@H](CC(C)C)C(=O)N[C@@H](CC(C)C)C(=O)NCC(=O)N1CCC[C@H]1C(=O)N[C@@]1(C)CCC/C=C\CCC[C@@](C)(C(=O)N[C@@H](CCCCN)C(N)=O)NC(=O)[C@H](CCCCN)NC(=O)[C@H](CCCCN)NC(=O)[C@H](CCCCN)NC1=O)[C@@H](C)O (H-[Sar]WTLNSAGYLLGP[S5]KKK[S5]K-NH2; staple (Z) 14-18) | Active | Non-toxic |
